The record followed here is PubChem BioAssay (NCI).

Where “and” joins values, the source holds several entries; their conditions need not be identical. Equal values may be shown once.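 Compound exposure: 48 hours, 5 concentrations, 96-well plates. GI50 = concentration required for 50% inhibition of growth. At the TGI there is no net growth.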

Test systems include M14 melanoma; MDA-MB-231 breast; K-562 leukemia; SNB-19 CNS; A549 NSCLC; LOX IMVI melanoma; UACC-62 melanoma; BT-549 breast; 786-0 renal; HCC-2998 colon; TK-10 renal; U251 CNS; MOLT-4 leukemia.
Holding throughout (assay): NCI anticancer screen, dose series, 48 h

For the compound `Cc1ccc(-n2cc(-c3ccc(Cl)cc3)c(C#N)c2N)cc1`, the TGI amounted to 28.7 µM in the experiment with M14 melanoma; 28.7 µM in the experiment with MDA-MB-231 breast; 47.9 µM in the experiment on K-562 leukemia; 38.1 µM in the experiment on SNB-19 CNS; 43.2 µM in the experiment on A549 NSCLC; 29.8 µM with LOX IMVI melanoma. Further, the TGI in the experiment with UACC-62 melanoma was found to be 29.9 µM; in the experiment on BT-549 breast, 32.1 µM; in the experiment with 786-0 renal, 29.1 µM; in the experiment on HCC-2998 colon it was 28.4 µM; with TK-10 renal it was 28.2 µM; with U251 CNS it was 27.3 µM.
On to `OC1(c2ccc3ccccc3c2)c2c(c3ccccc3c3ccccc23)C2=NCCN21` (stereo not drawn), for which the TGI was 4.29 µM in the experiment with M14 melanoma; more than 60.6 µM in the experiment on MDA-MB-231 breast; more than 100 µM in the experiment on K-562 leukemia; more than 58.2 µM in the experiment on SNB-19 CNS; more than 69.4 µM in the experiment with A549 NSCLC; 5.41 µM in the experiment on LOX IMVI melanoma. Further, the TGI in the experiment on UACC-62 melanoma is more than 55.1 µM; in the experiment on BT-549 breast, more than 37.3 µM; with 786-0 renal, 25.3 µM; with TK-10 renal, 35.4 µM; in the experiment with MOLT-4 leukemia, more than 100 µM; in the experiment with U251 CNS, 17.7 µM.
`O=C1C(NS(=O)(=O)c2ccccc2)=C(N(Cc2ccccc2)Cc2ccccc2)C(=O)c2ccccc21`: the TGI in the experiment with M14 melanoma, in the experiment on MDA-MB-231 breast, in the experiment on K-562 leukemia, in the experiment with SNB-19 CNS, in the experiment on A549 NSCLC and with LOX IMVI melanoma was more than 100 µM each time. Moreover, the TGI in the experiment on UACC-62 melanoma, with BT-549 breast, with 786-0 renal, in the experiment on TK-10 renal, in the experiment with MOLT-4 leukemia and with U251 CNS was more than 100 µM throughout.
On to `C#CC(O)Cc1ccc(OC)c2occc12` (stereo not drawn), for which the TGI with M14 melanoma, with MDA-MB-231 breast, in the experiment with K-562 leukemia, in the experiment with SNB-19 CNS, with A549 NSCLC and in the experiment on LOX IMVI melanoma was more than 100 µM throughout. Besides, the TGI in the experiment on UACC-62 melanoma, in the experiment on BT-549 breast, with 786-0 renal, with HCC-2998 colon, in the experiment on TK-10 renal and with U251 CNS was more than 100 µM each time.
Consider `COC(=O)[C@@H]1[C@H](O)CC[C@H]2[C@@]1(C)CC[C@@H](C)[C@]2(COC(C)=O)CC(=O)c1ccoc1`, for which the TGI in the experiment with M14 melanoma, in the experiment with MDA-MB-231 breast, in the experiment on SNB-19 CNS, in the experiment with A549 NSCLC, in the experiment with LOX IMVI melanoma and in the experiment on UACC-62 melanoma was more than 50 µM throughout. Further, the TGI with BT-549 breast, in the experiment with 786-0 renal, in the experiment on TK-10 renal, in the experiment with MOLT-4 leukemia and in the experiment on U251 CNS was more than 50 µM throughout.
Regarding `CC(Nc1n[nH]c(=O)c2c1nnn2Cc1ccccc1)c1ccccc1` (stereo not drawn), the TGI with M14 melanoma is more than 100 µM; with MDA-MB-231 breast, more than 100 µM; in the experiment on K-562 leukemia it was more than 100 µM; with SNB-19 CNS, > 100 µM and 66.2 µM; with A549 NSCLC, more than 100 µM; in the experiment with LOX IMVI melanoma, more than 100 µM. In addition, the TGI with BT-549 breast was more than 100 µM; in the experiment on 786-0 renal it was 30.1 µM; with HCC-2998 colon, more than 100 µM; in the experiment on TK-10 renal, > 100 µM and 64.7 µM; in the experiment with MOLT-4 leukemia it was more than 100 µM; in the experiment with U251 CNS, > 100 µM and 88.7 µM. Further, the GI50 in the experiment with MDA-MB-231 breast is > 100 µM and 49.8 µM; in the experiment with K-562 leukemia, > 100 µM and 22.8 µM; in the experiment with SNB-19 CNS, > 100 µM and 21.7 µM; in the experiment on LOX IMVI melanoma it was > 100 µM and 32.7 µM; in the experiment with BT-549 breast, > 100 µM and 37.5 µM; in the experiment with TK-10 renal, 89.3 µM and 23.4 µM.
Turning to `CCOC(=O)NC(=S)NC(C)c1ccccc1` (stereo not drawn), the TGI with M14 melanoma, with MDA-MB-231 breast, in the experiment on K-562 leukemia, with SNB-19 CNS, in the experiment on A549 NSCLC and in the experiment on UACC-62 melanoma was more than 100 µM each time. Moreover, the TGI with BT-549 breast, in the experiment with 786-0 renal, in the experiment with HCC-2998 colon, in the experiment on TK-10 renal, in the experiment on MOLT-4 leukemia and with U251 CNS was more than 100 µM throughout.
In the case of `C(=N/NC1=NCCN1)/c1c2ccccc2c(/C=N\NC2=NCCN2)c2ccccc12`, the GI50 in the experiment on M14 melanoma is 0.25 µM; in the experiment with MDA-MB-231 breast, 0.459 µM; with BT-549 breast, 0.244 µM and 0.096 µM. Further, the TGI with M14 melanoma is 0.568 µM and 0.697 µM; with MDA-MB-231 breast, 1.66 µM and 12.5 µM; in the experiment on K-562 leukemia, 3.63 µM and 4.43 µM and 1.7 µM; in the experiment with SNB-19 CNS, 0.458 µM and 0.922 µM and 2.15 µM; with A549 NSCLC, 0.258 µM and 1.37 µM and 1.12 µM; in the experiment with LOX IMVI melanoma it was 0.27 µM and 0.332 µM and 1.75 µM. Also, the TGI in the experiment on UACC-62 melanoma was 0.274 µM and 0.425 µM and 0.242 µM; with BT-549 breast, 0.892 µM and 0.347 µM; in the experiment with 786-0 renal, 1.86 µM and 1.87 µM; in the experiment with HCC-2998 colon, 0.439 µM and 0.47 µM and 0.658 µM; in the experiment on TK-10 renal, 4.73 µM and 12.9 µM; in the experiment on U251 CNS it was 0.722 µM and 0.309 µM and 1.16 µM.
On to `CCSC12CC3c4cccc5c4C(CN5C(=O)c4ccccc4)CC3(O1)N(C)C2=O` (stereo not drawn), for which the TGI with M14 melanoma, in the experiment with MDA-MB-231 breast, in the experiment on K-562 leukemia, in the experiment with SNB-19 CNS, in the experiment on A549 NSCLC and with LOX IMVI melanoma was more than 100 µM each time. For the same compound, the TGI in the experiment on UACC-62 melanoma is 67.9 µM; in the experiment on BT-549 breast, 80.7 µM; in the experiment with 786-0 renal it was more than 100 µM; in the experiment with TK-10 renal, more than 100 µM; with MOLT-4 leukemia, 62.6 µM; with U251 CNS, more than 100 µM.
For the compound `Cc1ccc(-n2cc(-c3ccc(Cl)cc3)c3c2N=CN2NC(c4cccs4)=NC32)cc1` (stereo not drawn), the TGI in the experiment on M14 melanoma is more than 100 µM; in the experiment with MDA-MB-231 breast, 21.5 µM; in the experiment with K-562 leukemia it was more than 100 µM; with SNB-19 CNS, 51.1 µM; in the experiment with A549 NSCLC, more than 100 µM; in the experiment with LOX IMVI melanoma, more than 100 µM. The TGI was 68.6 µM in the experiment with UACC-62 melanoma; 53.7 µM with BT-549 breast; 15.5 µM with 786-0 renal; more than 100 µM in the experiment with HCC-2998 colon; 27.9 µM in the experiment with TK-10 renal; 18.1 µM with U251 CNS.
